In patent publication US20040171613A1, “Therapeutic agent for non-immediate type allergic diseases” (JAPAN TOBACCO INC., priority 2001, published 2004):

How the values were obtained:
antigen-induced asthma = assay: antigen-induced immediate type asthma, late-type asthma and airway hypersensitivity in guinea pigs; format: in vivo, guinea pig; details: oral, compound A 10, 30, 100 mg/kg, positive controls 30 mg/kg
Method: The test compound was further diluted to 20, 6 and 2 mg/mL on needed basis. As positive controls, 6 mg/mL pranlukast hydrate (extracted from Onon™ (Ono Pharmaceutical Co., Ltd.)) and 6 mg/mL prednisolone (Sigma) were similarly prepared.
Sensitization: Using an ultrasonic nebulizer (NE-U12; OMRON), a 6-weeks old male Hartley guinea pig (Kudo, Co., Ltd.) was continuously inhaled with 1% OVA (ovalbumin; Sigma)-containing physiological saline for 10 minutes per day for 8 consecutive days.
Antigen challenge: One week after the last sensitization, 2% OVA was similarly inhaled for 5 minutes. 24 hours before and one hour after the OVA challenge, metyrapone-containing physiological saline (Aldrich, 10 mg/mL) was administered intravenously and 30 minutes before the OVA induction, pyrilamine-containing physiological saline (Sigma, 10 mg/kg) was administered intraperitoneally.
During the 8 days of sensitization, the test compound was given one hour before the sensitization. On the day of the antigen challenge, the test compound was given one hour before the challenge. As solvent controls, the vehicle was similarly administered in accordance with OVA induction and physiological saline induction.
As positive controls, pranlukast hydrate was administered one hour before the challenge, while prednisolone was administered 16 hours and 2 hours before the challenge. The animals were fasted 16 to 18 hours before the oral administration.
Using total respiratory function analysis system (Pulmos-I, M.I.P.S. Company), the pre value was measured. Subsequently, specific airway resistance (hereinafter referred to as sRaw) per 100 breathes was measured one minute and 2, 4, 5, 6, 7 and 8 hours after the OVA challenge, and further once between 22 to 26 hours after the challenge, respectively. The average was used as sRaw at each measured time point. The increment ratio of sRaw was calculated by the following formula.
Increment ratio of sRaw (%)=[(sRaw at each measured time point −sRaw before the challenge)/(sRaw before the challenge)]×100
Twenty-two to 26 hours after the antigen challenge, each of 0.0625, 0.125, 0.25, 0.5, 1 and 2 mg/mL solutions of physiological saline and acetylcholine (hereinafter referred to as ACh) were sequentially inhaled for one minute, until the sRaw was 2-fold or more to the baseline sRaw (sRaw after inhalation of physiological saline). Based on the ACh concentration and the concentration-resistance curve of sRaw, the ACh concentration required for the sRaw to achieve 100% increase from the baseline sRaw, i.e., PC100ACh was determined.

[1] = test system: spontaneous scratching reaction; assay: spontaneous scratching reaction of NC mouse; format: in vivo; details: NC/Jic mice; oral once a day for 3 weeks; vs solvent control
From the text: Currently, NC mouse is used as an animal model of atopic dermatitis. No dermatitis or scratching action is observed when the mouse is kept in an environment under the control of atmospheric microorganisms (in SPF environment). However, when the mouse is kept in a conventional environment, scratching action together with the onset of dermatitis can be observed from about week 8 and the symptom progresses into chronic symptom (J. Dermatol. Sci., 25, 20-28, 2001).
Preparation of solvent: MC was dissolved in tap water to prepare an aqueous 0.5% (w/v) MC solution.
As positive controls, betamethasone valerate (Sigma) and tacrolimus hydrate (extracted from Prograf (Fujisawa Pharmaceutical Co., Ltd.)) were similarly prepared to 1 mg/mL. Betamethasone valerate is one of the adrenocorticosteroids that is considered to be effective for the treatment of atopic dermatitis. Tacrolimus hydrate is a therapeutic agent of atopic dermatitis which is known as an immunosuppressor as described above.
The mice (A) were taken away from the cage and the NC/Jic mice were used at the age of 16 weeks.
Breeding conditions: The mice were fed with solid feed CA-1 (CLEA JAPAN INC.) ad libitum and tap water as drinking water ad libitum, and kept at a temperature of 22±2° C. and a humidity of 55±10% under lighting from 8:00 a.m. to 20:00 p.m.
From 10 days before the start of the experiment, the number of scratching behavior with hind legs of the mice was visually counted (for 20 minutes; once daily) over 2 days or 3 days. Among the plural mice counted, mice with 50 or more average scratching movements per day were selected for use.
The behavior of the mice was filmed under unattended environment with a video camera to count the scratching motion with hind legs for one hour. […] This series of scratching motions was counted as one scratching movement, and all such scratching movements were counted irrespective of scratched sites. The measurement was done on the starting day of administration, and one day, 3, 6, 10, 13, 17 and 20 days after the start of administration. […]

[2] = test system: 2-AG-E-induced ear swelling; assay: effect of compound A on 2-AG-E-induced ear swelling; format: in vivo, mouse
Method: Therefore, 2-arachidonoylglycerol ether (2-AG-E), the stable form of an endogenous ligand candidate 2-arachidonoylglycerol, and a specific CB2 agonist HU-308 were examined whether they directly induce ear swelling and compared to the ear swelling induced by arachidonic acid (AA).
Synthetically produced 2-AG-E and HU-308 were prepared with acetone to 1 or 10% (w/v) and 10% (w/v), respectively, and AA (Sigma) was prepared with acetone to 1.25% (w/v), on needed basis. 10 μL each of these substances was applied on each side of the left ear.
One hour later, 10 μL each of 10% (w/v) 2-AG-E was applied on each side of the left ear.

CB1 = CB1 (Homo sapiens, UniProt P21554); details: from JP-A 2000-256323, Table 33; cited from earlier work
[3] = test system: IgE-dependent allergic dermatitis; assay: murine IgE-dependent allergic dermatitis (triphase ear swelling); format: in vivo, mouse; details: oral 10 mg/kg
Method: A model was produced by passive sensitization of a mouse with IgE and repeated antigen challenge to trigger triphase (early phase, late phase and very late phase) dermatitis (Pharmacology, 60(2), 97-104, February 2000). Relation of mast cells and T cells, as well as invasion of eosinophils in local inflammatory sites is confirmed in these reactions.
In addition, as positive controls, similarly to the test compound, 1 mg/mL ketotifen fumarate (Sigma) and 3 mg/mL pranlukast hydrate (extracted from Onon™ (Ono Pharmaceutical Co., Ltd.)) were prepared. Pranlukast hydrate is used as a leukotriene inhibitor for therapeutic agents for asthma and allergic rhinitis. Ketotifen fumarate is used as a chemical mediator release suppressor for asthma, allergic rhinitis, eczema, dermatitis, urticaria, dermal pruritis and allergic conjunctivitis.
During the period from the antigen application day to the start of the dosing of the test compound, in place of the test compound, only the solvent was orally administered at 10 mL/kg once a day.
FIGS. 4 to 6 show the results of each measurement.

[4] = test system: IgE-dependent allergic dermatitis; details: mouse, in vivo, po
Method: Using a triphase dermatitis model that can be induced by antigen in mouse passively sensitizationed with IgE, the actions of CB2 inverse agonist and CB2 agonist were examined.
*Animal: 8 to 10 weeks-old Female BALB/c mouse (Japan SLC Inc.) was used.
Preparation of solvent: MC was dissolved in distilled water to prepare an aqueous 0.5% MC solution.
Anti-DNP IgE (antibody against DNP; Yamasa Corp.) was prepared to 15 μg/mL with physiological saline. 0.2 mL of the resulting solution was given through the caudal vein to the mouse.
Antigen preparation: 0.15% (w/v) of DNFB (2,4-dinitrofluorobenzene) was prepared in a mixed solution of acetone and olive oil (3:1, v/v) on needed basis.
Antigen application: 25 μl of the antigen solution was applied on each side of both of the ears 24 hours after the administration of the anti-DNP IgE.
From the next day of the antigen application to day 8 after the antigen application, 10 mL/kg test compound was orally administered once a day 9 times in total. On the day of antigen application, the test compound was administered one hour before the antigen application and the test compound was administered one hour before the measurement of the thickness of the ear on day 8 after the antigen application.
Before and 8 days after the antigen application, the thickness of the ear was measured with a dial thickness gauge (Mitutoyo Corp.). The difference between the value measured before the antigen application and at each time point was used as an index of swelling.
After the measurement of ear swelling, spleen and thymus were harvested to weigh their wet weights.

Sequence of CB1 (P21554 whole entry, species assumed): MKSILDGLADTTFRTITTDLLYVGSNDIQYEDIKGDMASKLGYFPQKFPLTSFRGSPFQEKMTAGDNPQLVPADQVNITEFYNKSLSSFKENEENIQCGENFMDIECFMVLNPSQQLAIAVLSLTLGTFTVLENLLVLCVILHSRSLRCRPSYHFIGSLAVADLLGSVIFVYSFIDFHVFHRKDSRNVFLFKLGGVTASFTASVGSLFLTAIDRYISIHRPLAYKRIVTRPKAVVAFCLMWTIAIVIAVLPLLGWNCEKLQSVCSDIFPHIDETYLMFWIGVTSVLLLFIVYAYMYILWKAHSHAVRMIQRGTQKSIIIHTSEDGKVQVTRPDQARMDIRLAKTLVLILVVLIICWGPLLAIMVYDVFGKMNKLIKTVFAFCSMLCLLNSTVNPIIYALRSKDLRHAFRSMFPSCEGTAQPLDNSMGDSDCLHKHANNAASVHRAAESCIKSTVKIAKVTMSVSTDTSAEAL

## CCCCCOc1c(OC)ccc2cc(C(=O)NCc3ccc4c(c3)OCO4)c(=O)[nH]c12 [Compound A, N-(benzo[1,3]dioxol-5-ylmethyl)-7-methoxy-2-oxo-8-pentyloxy-1,2-dihydroquinoline-3-carboxamide]
antigen-induced asthma; 22 to 26 hours after antigen challenge
  airway hypersensitivity (PC100ACh): suppressed
antigen-induced asthma
  immediate type asthma response (sRaw immediately after antigen challenge): suppressed
  late asthmatic response (sRaw over 4 to 8 hours after antigen challenge): suppressed
[1]
  number of scratching movements: suppressed the number of scratching movements
[2]; oral 0.01, 0.1, 1, 10 mg/kg one hour before 2-AG-E, dose-dependent
  ear swelling induced by the application of 10% 2-AG-E (AUC day 0 to day 8): suppressed ear swelling
[2]; oral 1 or 10 mg/kg
  ear swelling induced by 10% 2-AG-E, significance: significant effect
CB1
  IC50: 3.44 µM
[3]; 24 hours after antigen application
  ear swelling, late phase: significantly suppressed ear swelling
[3]; 8 days after antigen application
  ear swelling, very late phase: significantly suppressed ear swelling
[3]; administration started after the induction of the late phase
  ear swelling, very late phase, delayed start of dosing: effect of compound A in the very late phase was observed
[3]; one hour after antigen application
  ear swelling, early phase: significantly suppressed ear swelling
[4]
  wet weight of the spleen: no apparent changes
  wet weight of the thymus: no apparent changes
